Patent US5334595A, “Pyrazoloquinolones as anticancer agents” (priority 1992, dated 1994)

Tested on: adriamycin-resistant subline Mam16C/ADR
Assay: In vivo antitumor assay, Mam16C/ADR
Set-up: species or system mice
Conditions: drug iv, qd 1,3,5, exp 1120A
Description: Mice: Inbred: C3H/He and NCR-nu; and Hybrids: B6D2F1 (C57BL/6 females×DBA/2 males, CD2F1 (Balb/c females×DBS/2 males) and B6C3fl (C57BL/6×C3H) were bred at Wayne State University from strains obtained from the Frederick Cancer Research Facility, Frederick, Maryland or purchased from commercial suppliers.
Tumors: Murine Tumor: P388 and an adriamycin-resistant (ADR) subline P388/ADR leukemia and the following transplantable solid tumors of mice were used for in vivo testing: B16 melanoma (B16), pancreatic ductal adenocarcinoma No. 03 (Pane 03), colon adenocarcinoma No. 38 (colo 38), lung carcinoma No. 12 (LC 12), mammary ductal adenocarcinoma No. 16/C (Mam16C) and an adriamycin-resistant subline Mam16C/ADR. Human tumor: A single human tumor, mammary carcinoma MX-1 was used for in vivo testing. All tumors are in the Developmental Therapeutics Program frozen tumor respository, maintained by the Biological Testing Branch, Frederick Maryland. Each has a detailed description, code identification number, and list of references at the National Tumor Repository. […]
Quantitative end points used to assess antitumor activity included % Increased Life Span (% ILS), Tumor Cell Kill (Log10 kill), and Tumor Growth Inhibition (T/C). […]
The log10 cell kill was calculated from the following formula: [formula] where T-C is the tumor difference in the median day of death between the treated (T) and the control (C) groups and Td is the tumor doubling time (in days), the latter estimated from the best fit straight line from a log-linear growth plot of the control-group tumors in exponential growth. […]
Tumors were measured with a caliper once or twice weekly (as needed) until either tumors exceeded 1600 mg or cure was assured. […] When the control group tumors reached approximately 750-1500 mg in size (median of group), the median tumor weight of each group was determined (including zeros). […] The % T/C was calculated from the following formula for solid murine tumor models: [formula] where T and C are median tumor weights of the treatment and control groups, respectively. […]

`Cc1cc(-c2c(F)cc3c4nn(CCN(C)C)c(=O)c-4cn(C4CC4)c3c2F)cc(C)n1.O=C(O)/C=C/C(=O)O` [Example 1, 5-Cyclopropyl-6,8-difluoro-2,5-dihydro-2-[2-(dimethylamino)-ethyl]-7-(2,6-dimethyl-4-pyridinyl)-3H-pyrazolo[4,3-c]quinolin-3-one (E)-2-butendioate (1:1)] was tested, and the “Log Kill” value was 0.50 and the T/C % was 26%.
